# Reference: US3941800A, “N-benzyltriazole compounds” (Bayer Aktiengesellschaft, priority 1969, dated 1976)
# Columns and labels:
# Type in all cases: in vivo
# linseed = test: Growth inhibition/linseed test; details: 72 h, root length after 3 days vs control, dark, 25°C, pH 6
# Procedure: (§1) Solvent: 40 parts by weight acetone
# (§2) Emulsifier: 0.25 parts by weight alkylaryl polyglycol ether
# (§3) To produce a suitable preparation of active compound, 1 part by weight of active compound was mixed with the stated amount of solvent which contained the stated amount of emulsifier, and the concentrate was diluted with a disodium hydrogen phosphate-potassium dihydrogen phosphate buffer solution (pH 6) to the desired concentration.
# Batches of 25 linseeds were laid out on two filter papers in a Petri dish. 10 ml. of the preparation of active compound were pipetted into each dish. Germination of the seeds took place in the dark at 25°C.
# After 3 days, the length of the roots was determined and the growth inhibition compared with the control plant was expressed as a percentage. 100% denoted the standstill of growth, and 0% denoted a growth corresponding to that of the untreated plant.
# The active compounds, the concentrations of the active compounds in ppm (=mg/kg) and results can be seen from the following Table.
# tomato plants = test: Growth inhibition/tomato plants; details: Solanum lycopersicum, 192 h; 500 ppm spray on plants 10 cm high; after 8 days vs untreated control
# Procedure: as §1, §2
# as §3, with “compounds,” for “compound,”
# Tomato plants of a height of 10 cm were sprayed with a preparation which contained 500 ppm of active compound.
# After 8 days, the percentage inhibition of the treated plants compared with the untreated control plant was determined. With 100% inhibition, no growth was present; with 0% inhibition, the growth corresponded to that of the control plant.
# The active compounds, concentration of active compound in ppm (=mg/kg) and the results can be seen from the following Table.
# apple seedlings = test: Growth inhibition/apple seedlings; details: 168 h; 500 ppm spray on seedlings about 2 cm high; after 7 days vs untreated control
# Procedure: as §1, §2, §3
# Apple seedlings were, at a height of about 2 cm, sprayed with a preparation which contained 500 ppm of active compound.
# After 7 days, the percentage inhibition of the treated plants compared with the untreated control plant was determined. With 100% inhibition, no growth was present; with 0% inhibition, the growth corresponded to that of the control plant.
# The active compounds, the concentrations of the active compounds in ppm (=mg/kg) and the results can be seen from the following Table.
# oat grains = test: Growth inhibition/oat grains; details: 72 h, shoot length after 3 days vs control, dark, 25°C, pH 6
# Procedure: as §1, §2, §3
# Batches of 25 oat grains were laid out on two filter papers in a Petri dish. 10 ml. of the preparation of active compound were pipetted into each dish. Germination of the seeds took place in the dark at 25°C.
# After 3 days, the length of the shoot was determined and the growth inhibition compared with the control plant was expressed as a percentage. 100% denoted the standstill of growth, and 0% denoted a growth corresponding to that of the untreated plant.
# The active compounds, concentrations of the active compounds in ppm (=mg/kg) and the results can be seen from the following Table.
# [1] = test system: beans (Phaseolus vulgaris); test: Growth inhibition/bean plants; details: 500 ppm spray on beans 10 cm high; length after 8 days; water control 26 cm
# Procedure: as §1, §2
# as §3, with “concentrations.” for “concentration.”
# Beans (Phaseolus vulgaris) 10 cm high were sprayed with preparations which contained 500 ppm of active compound.
# After 8 days, the length of the treated plants compared with the untreated control plant was determined.
# The active compounds, concentrations of active compound in ppm (=mg/kg) and the results can be seen from the following Table.
smiles,measurement,setting,value
"C[N+](C)(C)CCCl [(2-chloroethyl)-trimethyl-ammonium chloride, reference compound]",inhibition at 50 ppm,linseed,20%
same,inhibition at 250 ppm,linseed,30%
same,inhibition at 500 ppm,tomato plants,25%
same,inhibition at 500 ppm,apple seedlings,25%
same,inhibition at 50 ppm,oat grains,22%
same,inhibition at 250 ppm,oat grains,31%
"Cc1cc(C(c2ccccc2)(c2ccc(F)cc2)n2cncn2)no1 (stereo not shown) [Compound 1, (4-fluoro-phenyl)-phenyl-(5-methyl-isoxazol-3-yl)-(1,2,4-triazol-1-yl)-methane]",inhibition at 50 ppm,linseed,85%
same,inhibition at 250 ppm,linseed,100%
same,inhibition at 500 ppm,tomato plants,81%
same,inhibition at 500 ppm,apple seedlings,50%
same,Length in cm with a concentration of active compound of 500 ppm,[1],10.5 cm
same,inhibition at 50 ppm,oat grains,97%
same,inhibition at 250 ppm,oat grains,100%
"Cc1cc(C(c2ccccc2)(c2ccc(Cl)cc2)n2cncn2)no1 (stereo not shown) [Compound 2, (4-chloro-phenyl)-phenyl-(5-methyl-isoxazol-3-yl)-(1,2,4-triazol-1-yl)-methane]",inhibition at 50 ppm,linseed,55%
same,inhibition at 250 ppm,linseed,85%
same,inhibition at 500 ppm,tomato plants,88%
same,Length in cm with a concentration of active compound of 500 ppm,[1],10.0 cm
same,inhibition at 50 ppm,oat grains,55%
same,inhibition at 250 ppm,oat grains,95%
"Cc1cccc(C(c2ccccc2)(c2nccn2C)n2cncn2)c1 (stereo not shown) [Compound 3, (3-methyl-phenyl)-phenyl-(1-methyl-imidazol-2-yl)-(1,2,4-triazol-1-yl)-methane]",inhibition at 50 ppm,linseed,85%
same,inhibition at 250 ppm,linseed,100%
same,inhibition at 500 ppm,tomato plants,60%
"Cc1cc(C(c2ccccc2)(c2ccccc2)n2cncn2)no1 [Compound 4, bis-phenyl-(5-methyl-isoxazol-3-yl)-(1,2,4-triazol-1-yl)-methane]",inhibition at 500 ppm,tomato plants,80%
same,inhibition at 500 ppm,apple seedlings,43%
same,inhibition at 50 ppm,oat grains,65%
same,inhibition at 250 ppm,oat grains,75%
"Cn1ccnc1C(c1ccccc1)(c1ccc(Cl)cc1)n1cncn1 (stereo not shown) [Compound 6, (4-chloro-phenyl)-phenyl-(1-methyl-imidazol-2-yl)-(1,2,4-triazol-1-yl)-methane]",inhibition at 50 ppm,oat grains,25%
same,inhibition at 250 ppm,oat grains,70%
"Cn1ccnc1C(c1ccccc1)(c1ccc(C(C)(C)C)cc1)n1cncn1 (stereo not shown) [Compound 7, (4-tert.-butyl-phenyl)-phenyl(1-methyl-imidazol-2-yl)-(1,2,4-triazol-1-yl)-methane]",inhibition at 50 ppm,oat grains,25%
same,inhibition at 250 ppm,oat grains,62%
"Cn1ccnc1C(c1ccccc1)(c1ccc(-c2ccccc2)cc1)n1cncn1 (stereo not shown) [Compound 8, (4-phenyl-phenyl)-phenyl(1-methyl-imidazol-2-yl)-(1,2,4-triazol-1-yl)-methane]",Length in cm with a concentration of active compound of 500 ppm,[1],11.5 cm
"O=c1ccc(=O)[nH][nH]1 [maleic acid hydrazide, reference compound]",inhibition at 50 ppm,linseed,36%
same,inhibition at 250 ppm,linseed,50%
same,inhibition at 500 ppm,tomato plants,33%
same,Length in cm with a concentration of active compound of 500 ppm,[1],12 cm
same,inhibition at 50 ppm,oat grains,20%
same,inhibition at 250 ppm,oat grains,40%
"CN(C)NC(=O)CCC(=O)O [succinic acid 2,2-dimethylhydrazide, reference compound]",inhibition at 50 ppm,linseed,12%
same,inhibition at 250 ppm,linseed,15%
same,inhibition at 500 ppm,tomato plants,20%
same,inhibition at 500 ppm,apple seedlings,23%
same,inhibition at 50 ppm,oat grains,22%
same,inhibition at 250 ppm,oat grains,37%
